From patent US20150218212A1, “FLUORINATED EPOXYKETONE-BASED TETRAPEPTIDE COMPOUNDS AND USES THEREOF AS PROTEASOME INHIBITORS” (FLUORINOV PHARMA INC., priority 2012, published 2015) come the findings set out here.

For this experiment, the target named is T1, chymotrypsin-like (CT-L) proteasome activity (Homo sapiens, UniProt P20618+P28074).
T1 sequence (P28074 60-263): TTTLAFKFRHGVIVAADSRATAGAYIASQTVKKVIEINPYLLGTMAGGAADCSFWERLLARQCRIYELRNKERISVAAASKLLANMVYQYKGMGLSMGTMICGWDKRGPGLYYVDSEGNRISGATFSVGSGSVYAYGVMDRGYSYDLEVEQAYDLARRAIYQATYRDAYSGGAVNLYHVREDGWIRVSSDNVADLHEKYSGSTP
T1 sequence (P20618 29-241): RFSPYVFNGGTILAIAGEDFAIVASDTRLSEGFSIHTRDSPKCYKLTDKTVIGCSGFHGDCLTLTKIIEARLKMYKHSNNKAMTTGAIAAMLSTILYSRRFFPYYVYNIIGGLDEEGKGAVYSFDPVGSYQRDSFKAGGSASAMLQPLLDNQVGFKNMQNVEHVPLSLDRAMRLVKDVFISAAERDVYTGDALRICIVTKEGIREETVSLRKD
The experiment in a line: Proteasome enzymatic activity (tumor cell lysates), CT-L, KMS-11. Format: biochemical. The conditions noted are these: KMS-11, mean ± standard deviation. As to the method:
Human multiple myeloma cell lines 8226, H929, JJN3, KMH11, KMS11, KMS18, LP1, MM1S, OPM2 and U266 were grown in Iscove modified Dulbecco's medium (IMDM). Human leukemia cell lines K562, OCI-AML2 and U937 were cultured in RPMI-1640 medium. Primary peripheral blood mononuclear cells were isolated from multiple myeloma patients by Ficoll density gradient centrifugation and bone marrow aspirates were obtained from multiple myeloma patients at the Princess Margaret Cancer Centre of the University Health Network (UHN; Toronto, ON, Canada). Primary cells were cultured in IMDM. The collection and use of human tissue for this study was approved by the UHN institutional ethics review board. All cell culture media were obtained from the Ontario Cancer Institute Tissue Culture Media Facility (Toronto, ON, Canada) and were supplemented with 10% fetal calf serum, […] (Hyclone, Logan, Utah). All cells were grown in a humidified incubator at 37° C. with 5% CO2.
Cells were harvested by centrifugation at 1,200 rpm at room temperature. Cell pellets were washed with PBS (phosphate buffered saline) and lysed with assay lysis buffer (50 mM HEPES (N-2-hydroxyethylpiperazine-N′-2-ethanesulfonic acid), pH 7.5; 150 mM NaCl; 1% Triton X-100; 2 mM ATP). Cell lysates were incubated on ice for 30 minutes, mixed by vortex every 5 minutes, and then centrifuged at 12,000 g for 10 minutes. The supernatant was transferred to a 96-well plate. For each assay, 10 μg of total protein were incubated for 1 hour at 37° C. with increasing concentrations (1 nM to 10 μM) of test compound diluted in assay buffer (50 mM tris-HCl (tris(hydroxymethyl)aminomethane-HCl), pH 7.5; 150 mM NaCl). DMSO alone was used as a control in every assay plate. After incubation, a specific fluorogenic proteasome substrate was added to each assay reaction at a final concentration of 40 μM in a total volume of 100 μL. N-Succinyl-Leu-Leu-Val-Tyr-7-amino-4-methylcoumarin (Suc-Leu-Leu-Val-Tyr-AMC) was used for measuring chymotrypsin-like (CT-L) activity, t-butoxycarbonyl-Leu-Arg-Arg-7-amino-4-methylcoumarin (Boc-Leu-Arg-Arg-AMC) for trypsin-like (T-L) activity, and benzyloxycarbonyl-L-leucyl-L-leucyl-L-glutamyl-7-amino-4-methylcoumarin (Z-Leu-Leu-Glu-AMC) for caspase-like (C-L) activity. The excitation wavelength was set at 360 nm and the fluorescence emission wavelength of AMC was detected at 460 nm. The fluorescence of free AMC released during the enzymatic reaction was measured with a SpectraMax M5 fluorescent spectrophotometric plate reader (Molecular Devices, Sunnyvale, Calif.). AMC release rate was measured at 37° C. in a kinetic mode, recording every 5 minutes for 30 minutes. Experiments were performed in triplicate and repeated at least twice.
Table 8 summarizes the data of representative compounds of Formula I for cell viability and CT-L proteasome activity with OCI-AML-2 and KMS-11 cell lines.
`CC(C)C[C@H](NC(=O)[C@H](COC(F)F)NC(=O)CN1CCOCC1)C(=O)N[C@@H](COC(F)F)C(=O)N[C@@H](CC(C)C)C(=O)[C@@]1(C)CO1` [Example 1, (2S)—N-[(1S)-1-(difluoromethoxymethyl)-2-[[(1S)-3-methyl-1-[(2R)-2-methyloxirane-2-carbonyl]butyl]amino]-2-oxo-ethyl]-2-[[(2S)-3-(difluoromethoxy)-2-[(2-morpholinoacetyl)amino]propanoyl]amino]-4-methyl-pentanamide] had an IC50 of 40.4 ± 6.97 nM.
The same measure for `CC(C)C[C@H](NC(=O)[C@H](COC(F)F)NC(=O)CN1CCOCC1)C(=O)N[C@@H](Cc1ccccc1)C(=O)N[C@@H](CC(C)C)C(=O)[C@@]1(C)CO1` [Example 2, (2S)-N-[(1S)-1-benzyl-2-[[(1S)-3-methyl-1-[(2R)-2-methyloxirane-2-carbonyl]butyl]-amino]-2-oxo-ethyl]-2-[[(2S)-3-(difluoromethoxy)-2-[(2-morpholinoacetyl)amino]propanoyl]amino]-4-methyl-pentanamide]: 46.8 ± 1.58 nM; for `CC(C)C[C@H](NC(=O)[C@H](COC(F)F)NC(=O)CN1CCOCC1)C(=O)N[C@@H](Cc1ccccc1)C(=O)N[C@@H](Cc1ccccc1)C(=O)[C@@]1(C)CO1` [Example 3, (2S)-N-[(1S)-1-benzyl-2-[[(1S)-1-benzyl-2-[(2R)-2-methyloxiran-2-yl]-2-oxo-ethyl]amino]-2-oxo-ethyl]-2-[[(2S)-3-(difluoromethoxy)-2-[(2-morpholinoacetyl)-amino]propanoyl]amino]-4-methyl-pentan-amide]: 38.2 ± 2.81 nM.
`CC(C)C[C@H](NC(=O)[C@H](COC(F)F)NC(=O)CN1CCOCC1)C(=O)N[C@@H](COC(F)F)C(=O)N[C@@H](Cc1ccccc1)C(=O)[C@@]1(C)CO1` [Example 4, (2S)-N-[(1S)-2-[[(1S)-1-benzyl-2-[(2R)-2-methyloxiran-2-yl]-2-oxo-ethyl]amino]-1-(difluoromethoxymethyl)-2-oxo-ethyl]-2-[[(2S)-3-(difluoromethoxy)-2-[(2-mor-pholinoacetyl)amino]propanoyl]amino]-4 methyl-pentanamide] showed a half-maximal inhibitory concentration (IC50) of 45.7 ± 8.26 nM.
Then `CC(C)C[C@H](NC(=O)[C@H](COC(F)F)NC(=O)[C@H](COC(F)F)NC(=O)[C@H](CCc1ccccc1)NC(=O)CN1CCOCC1)C(=O)[C@@]1(C)CO1` [Example 7, (2S)-N-[(1S)-1-(difluoromethoxymethyl)-2-[[(1S)-1-(difluoromethoxymethyl)-2-[[(1S)-3-methyl-1-[(2R)-2-methyloxirane-2-carbo-nyl]butyl]amino]-2-oxo-ethyl]amino]-2-oxo-ethyl]-2-[(2-morpholinoacetyl)amino]-4-phenyl-butanamide], with 33.7 ± 5.6 nM; and `CC(C)C[C@H](NC(=O)[C@H](Cc1ccccc1)NC(=O)[C@H](COC(F)F)NC(=O)[C@H](COC(F)F)NC(=O)CN1CCOCC1)C(=O)[C@@]1(C)CO1` [Example 11, (2S)-2-[[(2S)-3-(difluoromethoxy)-2-[[(2S)-3-(difluoromethoxy)-2-[(2-morpholinoacetyl)-amino]propanoyl]amino]propanoyl]amino]-N-[(1S)-3-methyl-1-[(2R)-2-methyloxirane-2-carbonyl]butyl]-3-phenyl-propanamide], with 50.7 ± 7.72 nM.
On to `CC(C)C[C@H](NC(=O)[C@H](COC(F)F)NC(=O)[C@H](COC(F)F)NC(=O)[C@H](COC(F)F)NC(=O)CN1CCOCC1)C(=O)[C@@]1(C)CO1` [Example 17, (2S)-3-(difluoromethoxy)-N-[(1S)-1-(difluoromethoxymethyl)-2-[[(1S)-1-(difluoro-methoxymethyl)-2-[[(1S)-3-methyl-1-[(2R)-2-methyloxirane-2-carbonyl]butyl]amino]-2-oxo-ethyl]amino]-2-oxo-ethyl]-2-[(2-mor-pholinoacetyl)amino]-propanamide], for which inhibition was half-maximal at 77.8 ± 6.77 nM (IC50).

What is called IC50 is the concentration that gives 50% inhibition. Read a low IC50 as greater potency in that assay.
